The supplement of paper PMC10307832

Legend:
Assay in all cases: relative viability (nuclei count vs DMSO), 5 days (fraction); higher = more cells survive
[1] = compound: Cc1ccc(NC(=O)c2ccc(CN3CCN(C)CC3)cc2)cc1Nc1nccc(-c2cccnc2)n1 [Imatinib] + C[C@@H](Oc1cc(-c2cnn(C3CCNCC3)c2)cnc1N)c1c(Cl)ccc(F)c1Cl [Crizotinib] (partner 1 µM)
How it was run: (§1)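 Relative viability is defined as nuclei in treated wells over nuclei in vehicle wells. Duplicate plates were run and medians reported. Lung cancer cell lines in 1536-well plates were dosed by pin tool one day after seeding, with one drug or with a fixed anchor-drug dose plus five library-drug doses (not always all listed) in √10 steps, and nuclei were counted after 5 days.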

[2] = compound: Cc1ccc(NC(=O)c2ccc(CN3CCN(C)CC3)cc2)cc1Nc1nccc(-c2cccnc2)n1 [Imatinib] + COc1cc2c(Oc3ccc(NC(=O)C4(C(=O)Nc5ccc(F)cc5)CC4)cc3F)ccnc2cc1OCCCN1CCOCC1 [Foretinib] (partner 0.25 µM)
How it was run: as §1

[3] = compound: Cc1ccc(NC(=O)c2ccc(CN3CCN(C)CC3)cc2)cc1Nc1nccc(-c2cccnc2)n1 [Imatinib] + N=C(N)NC(=N)NCCc1ccccc1 [Phenformin] (partner 250 µM)
How it was run: as §1

[4] = compound: Cc1ccc(NC(=O)c2ccc(CN3CCN(C)CC3)cc2)cc1Nc1nccc(-c2cccnc2)n1 [Imatinib] + O=C(CCCCCCC(=O)Nc1ccccc1)NO [Vorinostat] (partner 1 µM)
How it was run: as §1

Cell Line	relative viability ([1]; first compound 0.02 µM)	relative viability ([1]; first compound 0.2 µM)	relative viability ([1]; first compound 0.6325 µM)	relative viability ([1]; first compound 2 µM)	relative viability ([2]; first compound 0.02 µM)	relative viability ([2]; first compound 0.2 µM)	relative viability ([2]; first compound 0.6325 µM)	relative viability ([2]; first compound 2 µM)	relative viability ([3]; first compound 0.02 µM)	relative viability ([3]; first compound 0.2 µM)	relative viability ([3]; first compound 0.6325 µM)	relative viability ([3]; first compound 2 µM)	relative viability ([4]; first compound 0.02 µM)	relative viability ([4]; first compound 0.2 µM)	relative viability ([4]; first compound 0.6325 µM)	relative viability ([4]; first compound 2 µM)	relative viability ([1]; first compound 0.06325 µM)	relative viability ([2]; first compound 0.06325 µM)	relative viability ([3]; first compound 0.06325 µM)	relative viability ([4]; first compound 0.06325 µM)
NCI-H1355	1.13	1.21	1.03	1.15	1.05	1.07	0.964	0.983	0.493	0.461	0.409	0.391	0.733	0.688	0.579	0.609				
PC-14	1.15	0.935	0.958	0.848	0.934	1.08	0.934	0.983	0.626	0.586	0.374	0.656	0.902	0.8	0.56	0.791	0.936	0.84	0.802	0.472
A-427	0.981	0.993	0.755		1.13	1	0.946	1.01	0.327	0.316	0.27	0.237								
Calu-6	1.09	0.985	0.818	0.652	1.08	1.01	0.925	0.891									1.17	1.01		
NCI-H1563	0.823	0.863	0.884	0.825	0.924	0.902	0.845	0.925	0.634	0.658	0.607	0.625					0.884		0.648	
NCI-H1648													0.503	0.422	0.268	0.476				0.272
NCI-H1395					0.952	1		1.02	0.472	0.438	0.471	0.447	0.687	0.67	0.698	0.594		1.15	0.4	
HCC-44	0.921	0.911	0.841	0.712					0.252	0.222	0.196	0.192	1.12	1.14	1.14	1.04	0.841		0.22	
NCI-H1299					1.11	1.16	1.09											1.18		
NCI-H1703	0.773	0.437	0.304	0.186	0.329	0.372	0.402	0.347									0.88	0.397		
EBC-1	0.185	0.19	0.196	0.208	0.114	0.109	0.0904	0.0924									0.204	0.108		
